Data set [1] relates to Cytochrome P450 (CYP), mouse liver microsomes. Briefly: Metabolic stability (CYP) using mouse liver microsomes, HPLC. The format is in vitro ADME. The following applies: for Area (%) of peak: LC-UV (220 nm). How it is done: For CB-7, B2-24, and B2-5A, 10 mg/mL DMSO solution was used. Each chemical compound was diluted with acetonitrile to 0.1 mg/mL, which was used as the analytical standard. Mouse liver microsomal fractions were rapidly thawed in a warm bath at 37° C. and kept on ice. Reaction buffer containing CYP cofactor was prepared on ice and mixed with the microsomal fractions. The reaction solution was preincubated at 37° C. for 5 minutes, and then the test substance solution was added and mixed well by pipetting. The volume of the reaction solution was 200 μL and the final concentration of the test substance was 0.1 mg/mL. The reaction solution was incubated at 37° C. for 30 minutes or 2 hours, and the reaction was stopped by adding 3 times the volume of acetonitrile and vortexing. After the reaction was stopped, the samples were centrifuged, and each supernatant was separated and dried in an evaporator. 50 μL of 50% acetonitrile solution was added to each solidified sample, and each sample was re-dissolved by vortexing for 5 minutes. Each redissolved solution was centrifuged, and each supernatant was subjected to HPLC analysis using a HITACHI Lachrom ELITE (HITACHI) as a HPLC system and COSMOSIL 5C18-MS-II, 4.6 mmI.D.×150 mm (nacalai tesque Co.) as a column.
Metabolic stability analysis of CB-7 and B2-24-4-5A·HCOOH was performed by the method of Example 5.

Data set [2] is described as follows: Plasma concentration in normal mice after oral administration. In kind it is in vivo, mice (C57BL/6N). The following applies: C57BL/6N mice, 1 mg orally, LC/MS/MS. As to the method: Plasma concentrations of CB-7 or B2-24-4-5A·HCOOH were measured in normal mice (C57BL/6N, 11 weeks old, female) after oral administration. 1 mg of CB-7 or B2-24-4-5A·HCOOH was administered orally to mice C57BL/6N. After 0.5, 1, 2, 4, or 8 hours, blood was collected from mice C57BL/6N to prepare plasma. The concentration of CB-7 or B2-24-4-5A·HCOOH in the plasma was measured by LC/MS/MS.

Another data set deals with T1, mouse TLR7 (Mus musculus, UniProt P58681).
T1 construct: expressed in transfected cells; host or cells: Ba/F3 cells (provided by Prof. Kensuke Miyake, University of Tokyo)
T1 sequence (P58681 27-1050): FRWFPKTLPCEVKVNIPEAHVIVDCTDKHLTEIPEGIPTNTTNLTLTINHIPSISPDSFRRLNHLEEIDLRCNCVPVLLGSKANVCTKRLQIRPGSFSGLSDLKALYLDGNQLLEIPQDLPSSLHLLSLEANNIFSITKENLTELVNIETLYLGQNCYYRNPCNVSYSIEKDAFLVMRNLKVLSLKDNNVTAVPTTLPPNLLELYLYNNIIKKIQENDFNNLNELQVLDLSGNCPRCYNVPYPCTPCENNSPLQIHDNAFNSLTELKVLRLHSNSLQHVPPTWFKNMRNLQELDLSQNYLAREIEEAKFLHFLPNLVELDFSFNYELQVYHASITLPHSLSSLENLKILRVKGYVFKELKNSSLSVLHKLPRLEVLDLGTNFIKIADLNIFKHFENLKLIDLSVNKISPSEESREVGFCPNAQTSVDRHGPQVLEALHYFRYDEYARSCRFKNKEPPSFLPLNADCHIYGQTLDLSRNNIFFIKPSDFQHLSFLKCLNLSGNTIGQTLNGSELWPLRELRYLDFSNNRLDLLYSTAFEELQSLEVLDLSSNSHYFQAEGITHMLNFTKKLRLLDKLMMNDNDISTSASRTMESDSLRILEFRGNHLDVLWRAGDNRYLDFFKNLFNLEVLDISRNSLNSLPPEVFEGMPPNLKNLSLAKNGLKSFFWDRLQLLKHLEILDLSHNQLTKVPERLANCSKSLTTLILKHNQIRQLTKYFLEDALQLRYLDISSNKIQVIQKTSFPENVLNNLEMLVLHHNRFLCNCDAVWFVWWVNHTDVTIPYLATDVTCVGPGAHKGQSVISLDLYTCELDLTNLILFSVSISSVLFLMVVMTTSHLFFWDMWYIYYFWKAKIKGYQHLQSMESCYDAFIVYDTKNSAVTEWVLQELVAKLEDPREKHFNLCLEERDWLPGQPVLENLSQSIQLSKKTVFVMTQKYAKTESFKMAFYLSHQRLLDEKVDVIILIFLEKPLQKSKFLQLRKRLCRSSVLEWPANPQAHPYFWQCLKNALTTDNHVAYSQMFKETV
In words: Inhibition of TLR7 activation in mouse TLR7-expressing NF-κB-GFP reporter Ba/F3 cells. The format is cell-based. An excerpt: Mouse TLR7-expressing reporter cells (Ba/F3 cells) were used to evaluate inhibition of TLR7 activation in each derivative and CB-7. These cells were provided by Professor Kensuke Miyake (Department of Infection Genetics, Institute of Medical Science, University of Tokyo). These cells have been transfected with a reporter gene that connects GFP gene downstream of the promoter region of NF-κB. Therefore, the expression of GFP is enhanced by the addition of a ligand for TLR7 expressed by the cells. The fluorescence intensity of GFP was attenuated by the addition of each derivative, and the inhibition of TLR7 activation by each derivative was evaluated as an indicator.
Loxoribine (Alexis Biochemicals) was used as the ligand for mouse TLR7. Gardiquimod (Invivogen) was used as the ligand for human TLR7.
Ba/F3 cells cultured in RPMI 1640 medium containing 10% (v/v) fetal calf serum (FCS), 50 U/mL penicillin, 50 μg/mL streptomycin, 2 mM L-glutamine, […] 2-mercaptoethanol, 1 ng/mL interleukin-3 were aliquoted into 96-well plates so that the number of cells per well was 1.0×10^5 cells/100 μL. 50 μL of each derivative or CB-7, prepared to final concentrations of 1, 5, 10, 25, 50, and 100 µM, was added to each well. 96-well plates were incubated at 37° C. for 30 minutes in the presence of 5% CO2. Next, 250 μg/mL Roxoribin was added to each well and incubated for 18 hours. At the end of incubation, cells were washed with PBS (FACS buffer) containing 2.5% (v/v) FCS and suspended in 200 μL of FACS buffer containing 25 μg/mL […] for each cell. GFP fluorescence intensities of the cells were analyzed by flow cytometry. Flow cytometry measurement was performed on a FACSCanto™ II (Becton Dickinson) and data were analyzed with FlowJo software (Tree Star). The MFI (%) upon stimulation with roxoribin in the presence of […] derivatives or CB-7 was calculated using the MFI upon stimulation with roxoribin alone as 100%, and then IC50 (chemical compound concentration that inhibits activity by 50%) was calculated by logistic regression analysis.
The evaluation of the TLR7 activation inhibition by B2-24-4-5A·HCOOH was performed by the method described in Example 2. CB-7 and B2-24-4·HCl were used as controls.

From US12410157B2, “Compound useful as toll-like receptor 7 activation inhibitor” (TOYAMA PREFECTURAL UNIVERSITY, priority 2020, dated 2025) come the findings set out here.

Values joined by “and” are separate entries in the source; they are usually repeats but may differ in a detail not shown here. Identical values can stand only once. Like-named read-outs stand apart in the source and are kept apart here.

A word on the IC50: it is the concentration needed to halve the response being measured. With `C=C[C@]1(CO)CC[C@@H](C(=C)C)[C@H](c2ccc(OC)cc2)C1` [CB-7, reference compound], the “Number of peaks detected by HPLC” value in data set [1] (Example 3, 0.1 mg/mL, 37° C., 30 minutes or 2 hours) is 7; in data set [1] (Example 9), 9. Also, the “Area (%) of peak” value in data set [1] (Example 9, 0 h) was 100%; in data set [1] (Example 9, incubation 0.5 h) it was 65.3%; in data set [1] (Example 9, incubation 2.0 h) it was 41.6% and 41.2%. For the same compound, the “Plasma concentration after 8 hours” value in data set [2] is given as “could not be detected”. The IC50 is 3.12 µM at mouse TLR7 (Example 2, Ba/F3 reporter cells, loxoribine stimulation 18 hours, GFP MFI, read-out: IC50 of CB-7 derivatives with modified Areas a and b); 7.66 µM at mouse TLR7 (Example 5, Table 5, method of Example 2, read-out: IC50).
